pIC50: −log10 of the molar value.
Legend:
[1] = biological target: Lysine-specific histone demethylase 1A (Homo sapiens, UniProt O60341); experiment: LSD1 Screening Assay; details: pH 7.5; 25 °C
Procedure: The LSD1 screening biochemical assay was performed by Shanghai ChemPartner Co. Ltd and the detailed protocol was shown as followed. The AlphaLISA assay of LSD1 (BPS Bioscience) was performed in modified Tris buffer (pH 7.5). Briefly, the compoundsin DMSO were transferred to assay plate by Echo 550, followed by pre-incubating with enzyme (final concentration is 5 nM) for 15 min at room temperature. The initiation of reactions were added H3K4me2 peptide solution (final concentration is 100 nM) to the reaction mixtures and then incubated for 60 min at roomtemperature. The reactions were terminated by the addition of the acceptor and donor beads mix (PerkinElmer) and incubated for 60 min at room temperature, and finally read on EnSpire (PerkinElmer) in Alpha Mode.

[2] = biological target: T1, Amine oxidase [flavin-containing] A (Homo sapiens, UniProt P21397); experiment: MAO-A and MAO-B Assay
T1 sequence (P21397 whole entry): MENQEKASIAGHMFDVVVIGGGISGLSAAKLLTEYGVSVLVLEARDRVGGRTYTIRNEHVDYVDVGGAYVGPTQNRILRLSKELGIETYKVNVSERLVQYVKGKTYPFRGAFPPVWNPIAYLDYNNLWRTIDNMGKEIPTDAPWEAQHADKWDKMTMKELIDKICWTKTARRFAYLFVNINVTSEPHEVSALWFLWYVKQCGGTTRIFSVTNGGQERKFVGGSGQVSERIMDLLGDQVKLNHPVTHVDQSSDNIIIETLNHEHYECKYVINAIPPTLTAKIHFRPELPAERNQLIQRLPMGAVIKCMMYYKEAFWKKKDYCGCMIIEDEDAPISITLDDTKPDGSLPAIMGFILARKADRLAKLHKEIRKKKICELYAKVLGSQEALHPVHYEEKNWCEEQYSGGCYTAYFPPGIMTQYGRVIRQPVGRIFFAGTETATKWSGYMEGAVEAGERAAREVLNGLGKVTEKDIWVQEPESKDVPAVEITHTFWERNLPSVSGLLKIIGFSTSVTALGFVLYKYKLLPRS
Source text: (§1) The MAO-A and MAO-B is purchased from Active Motif (Cat#31502, Cat#31503). Biochemical Kit is purchased from Promega (MAO-Glo Assay, V1402). The inhibition of selectivity assay was preformed in light of the manufacturer's protocol.

[3] = biological target: T2, Amine oxidase [flavin-containing] B (Homo sapiens, UniProt P27338); experiment: MAO-A and MAO-B Assay
T2 sequence (P27338 whole entry): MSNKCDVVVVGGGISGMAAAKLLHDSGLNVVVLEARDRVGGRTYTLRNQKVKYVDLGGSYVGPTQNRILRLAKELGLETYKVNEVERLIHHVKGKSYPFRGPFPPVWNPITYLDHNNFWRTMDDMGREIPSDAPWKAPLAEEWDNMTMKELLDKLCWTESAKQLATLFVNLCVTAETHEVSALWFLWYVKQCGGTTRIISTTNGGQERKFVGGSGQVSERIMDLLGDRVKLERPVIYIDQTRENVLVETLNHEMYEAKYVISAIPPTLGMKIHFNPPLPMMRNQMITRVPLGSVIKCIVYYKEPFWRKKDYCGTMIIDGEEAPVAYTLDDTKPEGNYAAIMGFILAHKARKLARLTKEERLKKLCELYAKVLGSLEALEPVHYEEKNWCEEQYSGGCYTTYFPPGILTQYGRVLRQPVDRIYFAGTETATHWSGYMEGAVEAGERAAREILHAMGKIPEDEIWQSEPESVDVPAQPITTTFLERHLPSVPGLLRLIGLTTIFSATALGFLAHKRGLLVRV
Source text: as §1

pIC50 [1]	pIC50 [2]	pIC50 [3]	Compound
5.16	3.94	3.99	CC(Nc1cc(Cl)ccc1O)C(=O)Nc1cccc(S(=O)(=O)N2CCCCC2)c1 (stereo not drawn) [2-((5-Chloro-2-hydroxyphenyl)amino)-N-(3-(piperidin-1-ylsulfonyl)phenyl)propanamide (7h)]
4.96	–	–	CN(CC(=O)Nc1cccc(S(=O)(=O)N2CCCCC2)c1)c1cc(Cl)ccc1O [2-((5-Chloro-2-hydroxyphenyl)(methyl)amino)-N-(3-(piperidin-1-ylsulfonyl)phenyl)acetamide (7g)]
5.02	3.73	4.18	CN(CC(=O)Nc1cccc(S(=O)(=O)N2CCOCC2)c1)c1cc(Cl)ccc1O [2-((5-Chloro-2-hydroxyphenyl)(methyl)amino)-N-(3-(morpholinosulfonyl)phe-nyl)acetamide (7b)]
4.92	–	–	CC(Nc1cc(Cl)ccc1O)C(=O)Nc1cccc(S(=O)(=O)N(C)C)c1 (stereo not drawn)
4.89	–	–	O=C(CNc1cc(Cl)ccc1O)Nc1cccc(S(=O)(=O)N2CCOCC2)c1 [2-((5-Chloro-2-hydroxyphenyl)amino)-N-(3-(morpholinosulfonyl)phenyl)acetamide (7a)]
4.85	–	–	CN(C)S(=O)(=O)c1cccc(NC(=O)CNc2cc(Cl)ccc2O)c1 [2-((5-Chloro-2-hydroxyphenyl)amino)-N-(3-(N,N-dimethylsulfamoyl)phenyl)-acetamide (7d)]
4.89	–	–	CC(Nc1cc(Cl)ccc1O)C(=O)Nc1cccc(S(=O)(=O)N2CCOCC2)c1 (stereo not drawn) [2-((5-Chloro-2-hydroxyphenyl)amino)-N-(3-(morpholinosulfonyl)phenyl)propanamide (7c)]
4.89	–	–	CN(CC(=O)Nc1cccc(S(=O)(=O)N(C)C)c1)c1cc(Cl)ccc1O [2-((5-Chloro-2-hydroxyphenyl)(methyl)amino)-N-(3-(N,N-dimethylsulfamoyl)phenyl)acetamide (7e)]

Compound	pIC50 [1]	pIC50 [2]	pIC50 [3]
C/C(=N\NC(=O)c1cccc(S(=O)(=O)N2CCOCC2)c1)c1cc(Cl)ccc1O [US8987335, 12]	7.96	–	–
